In US9371295B2, “Compounds for use in the treatment of disorders that are ameliorated by inhibition of HDAC” (IRBM—Science Park S.p.A., priority 2012, dated 2016):
Blank lines part the entries; values can stand above or below the compound they belong to.

Columns and labels:
[1] = tested on: human γ-globin promoter (EGFP reporter) in K562 cells; assay: HbF activation assay on K562 (EGFP/RFP reporter model system for screening of inducers of fetal hemoglobin); format: cell-based; conditions: 60 hours
Procedure, shortened: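 K562 cells stably carrying EGFP under the human γ-globin promoter and far-red FP under the β-globin promoter, with the LCR, were seeded at 1000 cells/well. Cells were exposed to compounds (0.25% DMSO final) for 60 h at 37 °C. Fluorescence was read by plate cytometry, normalized to Hoechst nuclei count, which also indicated proliferation or death.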

[2] = tested on: γ-globin mRNA in K562 cells; assay: γ-globin mRNA in K562 cells by quantitative RT-PCR; format: cell-based, human; conditions: 6 days
Experimental: The expression of the genes encoding for γ-globin was evaluated by quantitative RT-PCR. The analyses were carried out on material extracted from cells treated for 6 days in the conditions indicated.
Total RNA was extracted from cells by the use of TRI Reagent RNA isolation Reagent (Sigma Aldrich). All solutions and laboratory equipment were certified RNAse free. Following the manufacturers instructions, 1 mL of the reagent was added to 5*10^6 cells. After a 3 minute incubation at room temperature, 20 μg of glycogen and 200 μL of chloroform were added. The samples were then centrifuged and the aqueous phase recovered. This phase was diluted with one volume of isopropanol and centrifuged at 4° C. to let the RNA precipitate. After a washing step with methanol, the extracted RNA was dried and then resuspended in RNAse free water. The purified RNAs were stored at −80° C.
In order to determine the quality of the extracted RNA, electrophoresis runs on 0.8% agarose gel were carried out. The amount of the recovered RNA was quantified by its absorbance at 260 nm. Protein contamination quality control was carried out by ensuring that the 260/280 nm absorbance ratio was greater than 1.8
cDNA production from the extracted RNA was carried out as per ImProm-II™ Reverse Transcription System (Promega). 0.5 μg di RNA was retro-transcribed by using random hexamer. The produced cDNA was then stored at −80° C. until use.
The expression of the genes encoding for γ-globin was evaluated by quantitative RT-PCR, using the following primer and probe oligonucleotides (FAM=6-carboxy fluorescein, TAMRA=6-carboxy-N,N,N′,N′-tetramethylrhodamine):
For real-time PCR analysis we used as reference gene the endogenous control human GAPDH kit (Applied Biosystems).
The erythroid differentiation of K562 cells was investigated following treatment with selected compounds of the invention. The effect on cell proliferation was first determined for all tested molecules by culture of K562 cells in the presence of increasing concentration of the compounds. The cell number per sample was then determined after 3, 4 and 5 days. The IC50 values reported in Table 3 for the antiproliferative effect were calculated from the concentration of the compounds necessary to decrease the cell number to 50% of the values obtained in control untreated K562 cell cultures, after a 5 days culture period. Erythroid differentiation was measured by benzidine staining after 5, 6 and 7 days of cell culture and by quantitative reverse transcriptase polymerase-chain reaction (RT-qPCR) to quantify the expression of γ-globin mRNA. Different concentrations of tested compounds were employed because of their differing antiproliferative effects; accordingly, concentrations were chosen to maximize the erythroid induction effect without extensive reduction of cell viability. In Table 3 the % of benzidine positive cells and the increase in γ-globin mRNA assayed by RT-qPCR after 6 days of culture period are reported.

[3] = Intrinsic clearance in pooled rat liver microsomes; format: in vitro ADME; conditions: pH 7.4
Experimental: Assays were performed in presence of 0.5 mg/ml of microsomal protein, with a NADPH-generating system (1 mM NADP, 2.5 mM glucose 6-phosphate and 2 U/ml glucose 6-phosphate dehydrogenase) in 100 mM potassium phosphate buffer containing 3.3 mM MgCl2 (pH 7.4). Tested compounds were stored in 10 mM DMSO solution and incubated at 1 μM final concentration (final DMSO concentration in incubation less than 0.1%). Microsomes and substrates were preincubated at 37° C. for 5 min and then the enzymatic reactions were initiated by the addition of cofactors and incubated at 37° C. for up to 90 min. Incubations were terminated by the addition of an equivalent volume of cold acetonitrile containing I.S. Control incubations, where the substrate was incubated in the same buffer system containing pRLM without the NADPH-generating system, were also run.

[4] = Intrinsic clearance in pooled human liver microsomes; format: in vitro ADME; conditions: pH 7.4
[5] = Intrinsic clearance in pooled mouse liver microsomes; format: in vitro ADME; conditions: pH 7.4
[6] = Mouse in vivo pharmacokinetics, oral dose; conditions: plasma
Experimental: Compounds of the invention were evaluated in in vitro and in vivo pharmacokinetic studies.

SMILES: CCC(=O)CCCCC[C@H](NC(=O)C1CN(C)C1)c1ncc(-c2cc3ccccc3nc2OC)o1 [Compound 2, (S)-N-(1-(5-(2-methoxyquinolin-3-yl)oxazol-2-yl)-7-oxononyl)-1-methylazetidine-3-carboxamide]
EC50 [1]: 100 to 1000 nM
γ-globin mRNA content (fold induction) ([2]; 70 nM): 1.75 fold induction
microsomal CLint at 1 μM [3]: 33 µL/min/mg
microsomal CLint at 1 μM [4]: 13 µL/min/mg
microsomal CLint at 1 μM [5]: 27 µL/min/mg
AUC ([6]; po 20 mg/kg): 22.4 µM·h
Cmax ([6]; po 20 mg/kg): 1870 nM

SMILES: CCC(=O)CCCCC[C@H](NC(=O)C(=O)N1CCN(C)CC1)c1ncc(-c2cc3ccccc3nc2OC)o1 [Compound 37, (S)-N-(1-(5-(2-methoxyquinolin-3-yl)oxazol-2-yl)-7-oxononyl)-2-(4-methylpiperazin-1-yl)-2-oxoacetamide]
EC50 [1]: > 1000 nM
γ-globin mRNA content (fold induction) ([2]; 1600 nM): 7.84 fold induction

SMILES: CCC(=O)CCCCC[C@H](NC(=O)C1(F)CN(C)C1)c1ncc(-c2cc3ccccc3nc2OC)o1 [Compound 67, (S)-3-fluoro-N-(1-(5-(2-methoxyquinolin-3-yl)oxazol-2-yl)-7-oxononyl)-1-methylazetidine-3-carboxamide]
EC50 [1]: > 1000 nM
γ-globin mRNA content (fold induction) ([2]; 1800 nM): 5.08 fold induction

SMILES: CCC(=O)CCCCC[C@H](NC(=O)C1CN(C)C1)c1ncc(-c2cc3ccccc3n(C)c2=O)o1 [Compound 92, (S)-1-methyl-N-(1-(5-(1-methyl-2-oxo-1,2-dihydroquinolin-3-yl)oxazol-2-yl)-7-oxononyl)azetidine-3-carboxamide]
EC50 [1]: 100 to 1000 nM
γ-globin mRNA content (fold induction) ([2]; 40 nM): 1.24 fold induction
microsomal CLint at 1 μM [3]: 15 µL/min/mg
microsomal CLint at 1 μM [4]: < 5 µL/min/mg
microsomal CLint at 1 μM [5]: 13 µL/min/mg
AUC ([6]; po 10 mg/kg): 0.32 µM·h
Cmax ([6]; po 10 mg/kg): 100 nM

SMILES: CCC(=O)CCCCC[C@H](NC(=O)CCN(C)C)c1ncc(-c2cc3ccccc3n(C)c2=O)o1 [Compound 106, (S)-3-(dimethylamino)-N-(1-(5-(1-methyl-2-oxo-1,2-dihydroquinolin-3-yl)oxazol-2-yl)-7-oxononyl)propanamide]
EC50 [1]: < 100 nM
γ-globin mRNA content (fold induction) ([2]; 60 nM): 2.01 fold induction

SMILES: CCC(=O)CCCCC[C@H](NC(=O)C1CCN(C)CC1)c1ncc(-c2cc3ccccc3n(C)c2=O)o1 [Compound 109, (S)-1-methyl-N-(1-(5-(1-methyl-2-oxo-1,2-dihydroquinolin-3-yl)oxazol-2-yl)-7-oxononyl)piperidine-4-carboxamide]
EC50 [1]: 100 to 1000 nM
γ-globin mRNA content (fold induction) ([2]; 60 nM): 1.31 fold induction

SMILES: CCC(=O)CCCCC[C@H](NC(=O)c1cncs1)c1ncc(-c2cc3ccccc3n(C)c2=O)o1 [Compound 110, (S)-N-(1-(5-(1-methyl-2-oxo-1,2-dihydroquinolin-3-yl)oxazol-2-yl)-7-oxononyl)thiazole-5-carboxamide]
EC50 [1]: 100 to 1000 nM
γ-globin mRNA content (fold induction) ([2]; 300 nM): 1.19 fold induction

More lines, now with the values ahead:

EC50 [1]: 100 to 1000 nM
γ-globin mRNA content (fold induction) ([2]; 200 nM): 1.03 fold induction
SMILES: CCC(=O)CCCCC[C@H](NC(=O)Cn1nc(C)nc1C)c1ncc(-c2cc3ccccc3nc2OC)o1 [Compound 80, (S)-2-(3,5-dimethyl-1H-1,2,4-triazol-1-yl)-N-(1-(5-(2-methoxyquinolin-3-yl)oxazol-2-yl)-7-oxononyl)acetamide]

EC50 [1]: 100 to 1000 nM
γ-globin mRNA content (fold induction) ([2]; 260 nM): 0.96 fold induction
SMILES: CCC(=O)CCCCC[C@H](NC(=O)c1cnc(CN2CCCC2)s1)c1ncc(-c2cc3ccccc3nc2OC)o1 [Compound 82, (S)-N-(1-(5-(2-methoxyquinolin-3-yl)oxazol-2-yl)-7-oxononyl)-2-(pyrrolidin-1-ylmethyl)thiazole-5-carboxamide]

EC50 [1]: < 100 nM
γ-globin mRNA content (fold induction) ([2]; 40 nM): 1.87 fold induction
SMILES: CCC(=O)CCCCC[C@H](NC(=O)C(C)(C)N(C)C)c1ncc(-c2cc3ccccc3n(C)c2=O)o1 [Compound 107, (S)-2-(dimethylamino)-2-methyl-N-(1-(5-(1-methyl-2-oxo-1,2-dihydroquinolin-3-yl)oxazol-2-yl)-7-oxononyl)propanamide]

EC50 [1]: < 100 nM
γ-globin mRNA content (fold induction) ([2]; 60 nM): 2.51 fold induction
SMILES: CCC(=O)CCCCC[C@H](NC(=O)C1(N(C)C)CCCC1)c1ncc(-c2cc3ccccc3n(C)c2=O)o1 [Compound 111, (S)-1-(dimethylamino)-N-(1-(5-(1-methyl-2-oxo-1,2-dihydroquinolin-3-yl)oxazol-2-yl)-7-oxononyl)cyclopentanecarboxamide]
